The results in this text go back to patent publication US9517244B2, “Therapeutic combinations for use in neoplasia” (University of Florida Research Foundation, Inc., priority 2011, dated 2016).

SMILES strings stand for the structures.

One assay has as its target DNA ligase I (Homo sapiens, UniProt P18858). Kind of assay: DNA ligase I activity in vitro. To be noted: DNA ligase I 1 nM. It counts as biochemical. How it is done:
(§1) Lanes 4-7 contained increasing concentrations of NSC-30049 (0.5, 1, 2.5, and 5 μM, respectively). The arrows indicate the positions of the 63-mer substrate and the products. […] Data are representative of three different experiments.

Assay [1] deals with human parental cancer cells. As to the kind of experiment: cell growth inhibition of parental cancer cells. It counts as cell-based. As to conditions: Homo sapiens, 72 h. How it is done:
(§2) Cells were treated with 1.25 μM of NSC-30049 and 1.25 μM of OPT either alone or in combination for 72 h. Data are mean±SD of triplicate experiments. […] Cells were treated with 1.25 μM of NSC-30049 and 1.25 μM of OPT either alone or in combination for 72 h. Fold change in gene expression values is shown as mean±SD of three experiments and are normalized to GAPDH gene expression.
(§3) The effect of administration of NSC-30049 in combination with oxaliplatin (OPT) was also examined in human parental cancer cells and colon cancer stem cells (FIG. 9A). Cells were treated with 1.25 μM of NSC-30049 and […] of OPT either alone or in combination for 72 h. Cell growth inhibition was assayed. Data presented are mean±SD of triplicate experiments.

The target of another assay is APE1 (Homo sapiens, UniProt P27695). Kind of assay: in vitro APE1 activity assay with purified APE1 and 32P-labeled 63-mer F-DNA. It counts as biochemical. From the text: FIGS. 4A and 4B depict the screening of small molecules. FIG. 4A depicts an in vitro assay system to determine the effect of compounds on the blockage of APE1-activity using purified APE1 and ^32P-labeled 63-mer F-DNA. FIG. 4B is a gel depicting the effect of the small molecules on APE1 activity. […] Data are representative of duplicate experiments.
Chain of APE1 (P27695 whole entry): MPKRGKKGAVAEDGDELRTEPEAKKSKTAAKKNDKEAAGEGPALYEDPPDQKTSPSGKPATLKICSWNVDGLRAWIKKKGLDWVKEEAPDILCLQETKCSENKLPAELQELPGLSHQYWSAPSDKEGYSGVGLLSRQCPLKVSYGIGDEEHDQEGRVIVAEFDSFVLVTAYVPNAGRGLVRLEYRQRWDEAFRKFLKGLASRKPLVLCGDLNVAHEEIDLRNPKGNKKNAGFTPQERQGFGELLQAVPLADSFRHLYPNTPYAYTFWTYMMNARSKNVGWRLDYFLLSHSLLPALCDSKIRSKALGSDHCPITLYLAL
FIG. 5A depicts an in vitro assay protocol using purified APE1 protein. FIG. 5B is an image of a gel showing a dose-dependent effect of NSC-30049 on APE1 activity. […] FIG. 5C is a graph depicting the percent cleavage and the IC50 of NSC-30049 to block APE1 activity, showing that APE1 is blocked in a dose-dependent manner. Data is mean±SE of three different experiments.
To determine the effect of compounds on the blockage of APE1 activity, an in vitro assay system was developed using purified APE1 and ^32P-labeled 63-mer F-DNA (FIG. 4A). Several small molecules (NSC-9746, NSC-18468, NSC-2137, NAC-30049 and NSC-32895) were screened for their ability to inhibit APE1 activity in the in vitro assay (FIG. 4B).

A further assay deals with A172. Kind of assay: MTT assay, brain cancer cell line. It counts as cell-based. As to conditions: Homo sapiens, A 172, 120 h, single agent, read-out: IC50 of NSC-30049. How it is done:
(§4) The use of NSC-30049 as a chemopreventive agent for the treatment of brain cancer was also tested. NSC-30049 in combination with temozolomide was administered to brain cancer cell lines, including U118, U138, U87MG, A172, and T98 cell lines (Table 6). Cells were pretreated with the indicated concentrations of NSC-30049 followed by TMZ for 120 h. After treatment, cells were processed for the determination of viability by cell proliferation assay (MTT assay). The data from the graph was used for the determination of IC50, which is presented as the mean±SE of three different estimations. Increasing the concentration of NSC-30049 decreased the IC50 of temozolomide for all cell lines tested, regardless of whether they were MMR proficient or deficient.

The test system of the next assay is U118. Kind of assay: MTT assay, brain cancer cell line. It counts as cell-based. To be noted: 120 h, single agent, read-out: IC50 of NSC-30049. As to the method: as §4
(In general: Formazan colour is commonly taken as a measure of viable cells.)

A further assay relates to T98. As to the kind of experiment: MTT assay, brain cancer cell line. Format: cell-based. As to conditions: Homo sapiens, T98, 120 h, single agent, read-out: IC50 of NSC-30049. How it is done: as §4
The next assay relates to U87MG. As to the kind of experiment: MTT assay, brain cancer cell line. It counts as cell-based. As to conditions: Homo sapiens, U-87 MG, 120 h, single agent, read-out: IC50 of NSC-30049. As to the method: as §4
Another assay relates to U138. As to the kind of experiment: MTT assay, brain cancer cell line. Format: cell-based. As to conditions: 120 h, single agent, read-out: IC50 of NSC-30049. How it is done:
as §4

The target in the next assay is Fen1 (Homo sapiens, UniProt P39748). Kind of assay: Fen1 activity in vitro. It counts as biochemical. As to conditions: 0.5-5 μM; Fen1 1 nM. How it is done: as §1
Chain of Fen1 (P39748 whole entry, species assumed): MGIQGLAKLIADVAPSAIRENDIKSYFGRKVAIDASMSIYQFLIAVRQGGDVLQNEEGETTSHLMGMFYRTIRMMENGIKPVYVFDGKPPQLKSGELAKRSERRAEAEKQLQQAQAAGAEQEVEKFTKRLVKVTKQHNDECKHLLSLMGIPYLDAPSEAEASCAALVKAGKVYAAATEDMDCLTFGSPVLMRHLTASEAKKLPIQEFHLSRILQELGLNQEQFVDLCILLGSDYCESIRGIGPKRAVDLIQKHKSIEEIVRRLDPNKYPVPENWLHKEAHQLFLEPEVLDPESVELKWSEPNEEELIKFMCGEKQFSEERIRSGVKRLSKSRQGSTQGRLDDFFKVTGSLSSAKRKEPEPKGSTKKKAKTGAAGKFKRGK
The test system of assay [2] is Aldh1a1 and Aldh1a7 expression in GBM-L0 stem cells. As to the kind of experiment: qRT-PCR of aldehyde dehydrogenase genes in GBM-L0 stem cells. It counts as cell-based. As to conditions: 36 h. As to the method:
Cells were pretreated with 2.5 μM of NSC30049 or 10 or 100 μM TMZ alone or in combination with NSC-30049 for 36 h. Then, total RNA was isolated and processed for gRT-PCR. Data presented are the mean±SE of three different measurements. […] Treatment with NSC-30049 or TMZ reduced the expression of aldehyde dehydrogenase gene Aldh1a7 in GBM-LO stem cell line in vitro, but not treatment with NSC-30049 and TMZ. Cells were pretreated with 2.5 μM of NSC30049 or 10 or 100 μM of TMZ alone or in combination with NSC-30049 for 36 h. Then, total RNA was isolated and processed for qRT-PCR. Data presented are the mean±SE of three different measurements.
Without being bound to a particular theory, the effect of administration of NSC-30049 in combination with temozolomide (TMZ) on the expression of self-renewal marker genes of […] was analyzed. Self-renewal marker genes are highly expressed in colon cancer stem cells compared to human parental cancer cells. qRT-PCR data of CD133+, Oct4, Sox2 and Nanog gene expression levels of GBM-L0 stem cells was obtained (FIG. 14A). Cells were pretreated with 2.5 μM of NSC30049 or 10 or 100 μM of TMZ alone or in combination with NSC-30049 for 36 h. Then, total RNA was isolated and processed for qRT-PCR. Data presented are the mean±SE of three different measurements. […]
(In general: Quantitative PCR measures a nucleic acid by following its amplification.)

Another assay has as its system colon cancer stem cells. Kind of assay: cell growth inhibition of colon cancer stem cells. To be noted: Homo sapiens, 72 h. Format: cell-based, human. How it is done:
as §2, §3

The subject of a further assay is BxPC3. As to the kind of experiment: MTT assay, pancreatic cancer cell line. Format: cell-based, human. As to conditions: Homo sapiens, BXPC-3; BxPC3 (dFdC-sensitive); single agent; 72 h; read-out: IC50.
Where [3] appears, read: 1.25 μM NSC-30049 in combination with 1.25 μM oxaliplatin.

Chain of DNA ligase I (P18858 whole entry, species assumed): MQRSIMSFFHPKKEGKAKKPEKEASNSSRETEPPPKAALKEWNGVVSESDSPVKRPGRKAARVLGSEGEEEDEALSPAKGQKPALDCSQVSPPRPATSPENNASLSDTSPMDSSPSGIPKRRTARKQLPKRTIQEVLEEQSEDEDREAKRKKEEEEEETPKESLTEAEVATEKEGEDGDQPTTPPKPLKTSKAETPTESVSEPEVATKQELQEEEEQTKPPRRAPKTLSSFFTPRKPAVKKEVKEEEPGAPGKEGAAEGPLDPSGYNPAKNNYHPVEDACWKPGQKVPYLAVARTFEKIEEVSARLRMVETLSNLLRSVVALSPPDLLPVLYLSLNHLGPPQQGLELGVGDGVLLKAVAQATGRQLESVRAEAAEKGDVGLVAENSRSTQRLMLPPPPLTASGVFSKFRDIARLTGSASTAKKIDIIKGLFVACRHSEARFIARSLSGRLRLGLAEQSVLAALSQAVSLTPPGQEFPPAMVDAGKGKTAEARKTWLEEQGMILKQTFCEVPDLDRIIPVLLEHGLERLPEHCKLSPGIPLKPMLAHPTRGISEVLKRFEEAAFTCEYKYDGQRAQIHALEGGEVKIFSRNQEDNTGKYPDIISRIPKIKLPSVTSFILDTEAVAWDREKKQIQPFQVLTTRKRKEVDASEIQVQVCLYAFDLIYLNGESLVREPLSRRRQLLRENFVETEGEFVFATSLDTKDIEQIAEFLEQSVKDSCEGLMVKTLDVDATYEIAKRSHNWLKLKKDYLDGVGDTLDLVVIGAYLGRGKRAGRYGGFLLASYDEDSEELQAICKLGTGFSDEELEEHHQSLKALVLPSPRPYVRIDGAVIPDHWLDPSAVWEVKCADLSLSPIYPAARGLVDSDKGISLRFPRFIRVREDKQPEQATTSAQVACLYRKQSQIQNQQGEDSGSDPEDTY

Turning to `ClCC=CC[N+]12CN3CN(CN(C3)C1)C2` [NSC-30049, 1-(4-Chloro-2-butenyl)-1λ˜5˜,3,5,7-tetraazatricyclo[3.3.1.1˜3,7˜]decane], the “effect on DNA ligase I activity” value on DNA ligase I was “did not affect DNA ligase I activity”. Besides, the inhibition – broadly, the change of the read-out against control, counted positive when it falls – at 1.25 µM in [1] (setting [3]) is ~70%; in [1] (alone, 1.25 μM), ~20%; with colon cancer stem cells (setting [3]), ~80%; with colon cancer stem cells (alone, 1.25 μM) it was ~10%. In addition, the “inhibition of APE1 activity in screen” value against APE1 (5, 10, 20 and 40 μM) is recorded as “inhibit APE1 activity in the in vitro assay at all concentrations tested”. Moreover, the concentration for half-maximal inhibition (IC50) (as a rule, the point on the concentration scale where inhibition reaches its midpoint) on APE1 (purified APE1, read-out: IC50 to block APE1 activity) was 0.0072 µM; in the assay with A172, 6.5 ± 0.3 µM; in the assay on U118, 2.6 ± 0.1 µM; in the assay on T98, 10.1 ± 0.3 µM; in the assay with U87MG it was 5.6 ± 1 µM; in the assay on U138 it was 2.1 ± 0.1 µM. Further, in the assay on BxPC3, the IC50 amounted to 3.87 ± 0.24 µM. Also, on Fen1, the “effect on Fen1 activity” value is given as “did not affect Fen1 activity”. In addition, in [2] (2.5 μM NSC-30049 + 10 or 100 μM TMZ), the “expression of Aldh1a1” value was “significantly inhibited the expression of Aldh1a1”. In addition, the “expression of Aldh1a7” value in assay [2] (agent alone) is given as “inhibited”.
